Results on two molecules are retold here after patent publication US9126989B2, “Compound and methods for treating long QT syndrome” (Gilead Sciences, Inc., priority 2013, dated 2015).

Entries after “also recorded” stand apart in the source; their conditions may differ.

Data set [1] deals with rabbit isolated wedge preparation. Put plainly: Rabbit isolated left ventricular wedge preparation, E-4031 model of LQT-2. The following applies: 60 nM E-4031, 300 nM Compound 1, cycle lengths 500, 1000 and 2000 msec. How it is done: E-4031 is an inhibitor of IKr.
Rabbit isolated left ventricular wedge was prepared as previously described (Yan et al, 1996, 2009). Briefly, the chest was opened via a left thoracotomy, and the heart was excised, placed in a cardioplegic solution consisting of cold (4° C.) Tyrode's solution containing 20 mmol/L […], and transported to a dissection tray. Transmural wedges with dimensions of approximately 1×1×0.8 or 0.8×0.8×0.4 cm^3 were dissected from the left ventricle. The tissue was cannulated via a small (diameter, ≈100 μm) branch of the left anterior descending artery or another coronary artery and perfused with cardioplegic solution. The total period of time from excision of the heart to cannulation and perfusion of the artery was less than 4 minutes. Unperfused tissue was carefully removed with a razor blade. The preparation was then placed in a tissue bath and arterially perfused with Tyrode's solution of the following composition (mmol/L): NaCl 129, KCl 4, NaH2PO4 0.9, NaHCO3 20, Ca 1.8, MgSO4 0.5, glucose 5.5, and insulin 1 U/L, buffered with 95% O2/5% CO2 (36±1° C.). The perfusate was delivered to the artery by a roller pump (Cole Panner Instrument Co). Perfusion pressure was monitored with a pressure transducer (World Precision Instruments, Inc) and maintained between 40 and 50 mm Hg by adjustment of the perfusion flow rate. The preparations remained immersed in the arterial perfusate, which was allowed to rise to a level 2 to 3 mm above the tissue surface (36±1° C.).

The nature of data set [2]: PK after single oral dose in patients with LQT-3. The format is in vivo, human. An excerpt: This is similar to the PK profile of Compound 1 in healthy volunteers.
For data set [3], the target named is T1, cardiac late sodium current (INa) (Homo sapiens, UniProt Q14524). The following applies: see US 2013/0012492; cited from earlier work.
Data set [4] addresses T1, cardiac late sodium current (INa). In words: Inhibition of the cardiac late sodium current. The format is biochemical.
The next data set concerns the target P-glycoproteins (Homo sapiens, UniProt P08183). Put plainly: P-glycoprotein inhibition. The data set is classed as in vitro ADME.
Data set [5] has as its system model of long QT syndrome-3 (LQT3). In words: Model of LQT-3: action potential duration and beat-to-beat variability.
The next data set relates to patients with LQT3. Put plainly: Phase 1 clinical study in patients with LQT3 (QTc, ECHO, tolerability). The format is in vivo, human. Particulars: for Tolerability: Phase 1; for Change in QTc from baseline: all dose levels (10-60 mg single, multiple dose cohort). How it is done:
In an ongoing Phase 1, effect of oral Compound (I) on the QTc interval in subjects with LQT3 was evaluated. Subjects with LQT3 identified from the LQTS registry with proven mutations in the cardiac sodium channel and a QTc >460 msec will be enrolled. Four sequential single dose cohorts and 1 multiple dose cohort were enrolled and received a single dose of Compound (I) (Cohort 1: 10 mg; Cohort 2: 20 mg; Cohort 3: 30 mg; Cohort-4: 60 mg) or multiple doses of Compound (I) (Cohort 5: Day 1—20 mg, Day 2—40 mg, Days 3-7—6 mg once daily).
Ten subjects were enrolled. Among these 10 subjects, 3 subjects received single oral dose of Compound (I), 5 subjects received Compound (I) at 2 different dose periods, and 2 subjects received Compound (I) at 3 different dose periods. […] Changes in QTc interval from baseline (Day −1 for Cohorts 1-4; average of Day −2 and Day −1 for Cohort 5) were analyzed in 2 different ways: 1) changes in average daytime QTc during 12 hours postdose (QTc interval AUC0-12/12) and 2) maximal time-matched QTc changes within 12 hours postdose. […] In the multiple dose cohort (shown in FIG. 5-6), the effect of Compound (I) on QTc shortening was dose-dependent with a larger QTc shortening after 40 mg on Day 2 compared to 20 mg on Day 1. More importantly, the QTc shortening was sustained during the maintenance doses of 6 mg from Days 3-7.
In addition, effect of Compound (I) on cardiac function was assessed by ECHO. For the single dose cohorts, echocardiography (ECHO) was performed at baseline (Day −1) and at 3 and 6 hours after the single oral dose of Compound (I) on Day 1. For the multiple dose cohort (Cohort 5), ECHO was performed at baseline (Day −1), at 3 and 6 hours after the single oral dose of Compound (I) on Day 1, and at 3 hours after dose on Day 4 and Day 7.

The subject of the next data set is rabbit isolated heart. In words: Rabbit isolated heart, E-4031 model of LQT-2 and drug-induced QT prolongation. An excerpt:
E-4031 is an inhibitor of IKr. […] Hearts were paced at a rate of 1 Hz.
The use of rabbits (New Zealand White adult females, 2-4 kg; Western Oregon Rabbit Company, Philomath, Oreg.) in this investigation conformed to the “Guide for the Care and Use of Laboratory Animals” (NIH publication No. 85-23, revised 1996) and was approved by the Institutional Animal Care and Use Committees of Gilead Sciences. Hearts were isolated and perfused by the method of Langendorff as previously described (Wu et al., 2009). Briefly, the atrioventricular nodal area was thermally ablated to produce heart block, and hearts were paced at a rate of 1 Hz. Monophasic action potentials (MAPs) from the left ventricular epicardium and pseudo 12-lead electrocardiograms (ECGs) were recorded. […] The duration of the MAP at the level at which repolarization is 90% complete (MAPD90) was measured.

The subject of data set [6] is cytochrome P450 (CYP) enzymes. In words: Cytochrome P450 inhibition. The format is in vitro ADME.
The mark [7] stands for this setting: after single dose administration.
The mark [8] stands for this setting: LQT3 patients, listed as Compound (I).

T1 sequence (Q14524 whole entry): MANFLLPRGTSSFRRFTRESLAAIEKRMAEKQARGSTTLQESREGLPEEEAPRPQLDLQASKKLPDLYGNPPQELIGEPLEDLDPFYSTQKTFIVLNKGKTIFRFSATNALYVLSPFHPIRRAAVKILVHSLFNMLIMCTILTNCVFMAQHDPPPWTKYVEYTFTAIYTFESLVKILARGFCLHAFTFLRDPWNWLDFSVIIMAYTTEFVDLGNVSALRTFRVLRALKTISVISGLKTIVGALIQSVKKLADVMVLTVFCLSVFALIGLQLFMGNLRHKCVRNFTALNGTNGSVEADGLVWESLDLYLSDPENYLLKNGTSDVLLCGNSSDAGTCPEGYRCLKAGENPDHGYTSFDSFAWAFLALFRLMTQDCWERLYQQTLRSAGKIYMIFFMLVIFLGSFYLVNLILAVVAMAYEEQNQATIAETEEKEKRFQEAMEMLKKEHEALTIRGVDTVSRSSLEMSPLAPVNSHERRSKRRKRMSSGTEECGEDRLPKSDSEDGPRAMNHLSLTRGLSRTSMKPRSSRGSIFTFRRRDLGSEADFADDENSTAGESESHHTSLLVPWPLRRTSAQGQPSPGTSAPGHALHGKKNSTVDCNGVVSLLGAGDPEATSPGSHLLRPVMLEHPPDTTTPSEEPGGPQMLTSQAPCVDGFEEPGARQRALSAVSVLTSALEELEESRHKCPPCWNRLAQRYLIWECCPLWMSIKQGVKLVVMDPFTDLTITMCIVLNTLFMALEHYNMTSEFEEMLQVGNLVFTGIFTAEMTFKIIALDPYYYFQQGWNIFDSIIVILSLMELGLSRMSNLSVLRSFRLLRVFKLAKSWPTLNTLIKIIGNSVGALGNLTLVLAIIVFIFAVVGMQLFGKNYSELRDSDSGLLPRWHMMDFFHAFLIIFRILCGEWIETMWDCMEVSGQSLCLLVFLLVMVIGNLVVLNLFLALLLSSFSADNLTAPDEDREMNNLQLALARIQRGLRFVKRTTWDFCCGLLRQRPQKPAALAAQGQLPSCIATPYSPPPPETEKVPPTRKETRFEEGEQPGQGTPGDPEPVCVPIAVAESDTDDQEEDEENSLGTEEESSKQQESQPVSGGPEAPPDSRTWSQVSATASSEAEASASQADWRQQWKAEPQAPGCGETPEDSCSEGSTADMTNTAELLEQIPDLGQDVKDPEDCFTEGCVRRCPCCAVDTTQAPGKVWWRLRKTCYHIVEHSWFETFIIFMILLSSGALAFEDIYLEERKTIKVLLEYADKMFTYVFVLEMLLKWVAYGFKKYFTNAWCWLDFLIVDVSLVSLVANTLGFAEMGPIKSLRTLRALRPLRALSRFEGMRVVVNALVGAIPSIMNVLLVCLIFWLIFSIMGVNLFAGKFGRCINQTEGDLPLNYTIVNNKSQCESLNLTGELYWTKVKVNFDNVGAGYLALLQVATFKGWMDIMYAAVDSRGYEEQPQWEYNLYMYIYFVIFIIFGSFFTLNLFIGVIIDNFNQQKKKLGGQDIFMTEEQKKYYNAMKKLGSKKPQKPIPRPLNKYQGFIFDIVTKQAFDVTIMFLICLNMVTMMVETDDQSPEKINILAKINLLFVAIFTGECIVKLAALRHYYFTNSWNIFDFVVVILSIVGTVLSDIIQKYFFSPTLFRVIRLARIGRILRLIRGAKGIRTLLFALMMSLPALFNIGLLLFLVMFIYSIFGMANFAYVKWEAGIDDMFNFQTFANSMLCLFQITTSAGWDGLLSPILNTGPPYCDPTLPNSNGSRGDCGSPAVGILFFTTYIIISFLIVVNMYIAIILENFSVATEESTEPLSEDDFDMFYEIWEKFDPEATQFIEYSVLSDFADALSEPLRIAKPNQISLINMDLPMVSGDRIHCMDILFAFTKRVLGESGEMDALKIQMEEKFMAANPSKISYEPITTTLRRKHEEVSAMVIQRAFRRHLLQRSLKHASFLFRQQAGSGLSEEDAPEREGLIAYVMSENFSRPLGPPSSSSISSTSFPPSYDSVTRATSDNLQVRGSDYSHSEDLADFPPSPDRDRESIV
P-glycoproteins, sequence (P08183 whole entry): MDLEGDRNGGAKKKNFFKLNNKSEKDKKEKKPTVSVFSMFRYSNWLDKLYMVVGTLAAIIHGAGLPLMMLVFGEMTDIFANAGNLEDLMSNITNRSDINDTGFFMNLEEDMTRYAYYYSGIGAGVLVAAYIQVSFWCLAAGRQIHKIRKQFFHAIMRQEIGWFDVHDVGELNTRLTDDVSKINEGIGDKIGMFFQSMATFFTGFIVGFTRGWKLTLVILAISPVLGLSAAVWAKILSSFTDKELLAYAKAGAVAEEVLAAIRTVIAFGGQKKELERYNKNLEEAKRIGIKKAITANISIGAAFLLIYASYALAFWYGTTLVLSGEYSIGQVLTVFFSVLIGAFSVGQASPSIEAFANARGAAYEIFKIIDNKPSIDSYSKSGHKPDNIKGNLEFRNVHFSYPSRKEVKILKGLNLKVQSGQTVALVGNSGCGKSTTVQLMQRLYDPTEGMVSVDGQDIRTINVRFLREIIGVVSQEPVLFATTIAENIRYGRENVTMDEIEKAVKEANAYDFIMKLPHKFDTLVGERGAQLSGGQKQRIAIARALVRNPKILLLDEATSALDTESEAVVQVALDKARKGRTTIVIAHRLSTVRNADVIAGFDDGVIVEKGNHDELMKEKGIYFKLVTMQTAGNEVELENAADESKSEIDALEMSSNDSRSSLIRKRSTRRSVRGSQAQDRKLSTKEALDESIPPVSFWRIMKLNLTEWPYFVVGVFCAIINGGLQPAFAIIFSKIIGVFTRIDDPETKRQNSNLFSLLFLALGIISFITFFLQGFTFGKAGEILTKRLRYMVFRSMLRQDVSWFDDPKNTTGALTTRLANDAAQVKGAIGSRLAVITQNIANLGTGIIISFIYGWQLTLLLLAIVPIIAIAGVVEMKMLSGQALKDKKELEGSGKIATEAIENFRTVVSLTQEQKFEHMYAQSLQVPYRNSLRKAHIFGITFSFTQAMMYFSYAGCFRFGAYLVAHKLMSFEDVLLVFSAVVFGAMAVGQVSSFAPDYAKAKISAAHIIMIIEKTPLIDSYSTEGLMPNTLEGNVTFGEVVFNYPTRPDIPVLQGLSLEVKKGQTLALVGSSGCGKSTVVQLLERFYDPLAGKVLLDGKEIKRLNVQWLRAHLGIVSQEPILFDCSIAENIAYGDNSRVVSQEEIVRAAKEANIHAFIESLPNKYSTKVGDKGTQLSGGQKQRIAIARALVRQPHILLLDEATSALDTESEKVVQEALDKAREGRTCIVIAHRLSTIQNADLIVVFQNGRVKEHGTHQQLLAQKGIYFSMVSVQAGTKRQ

As to `O=C1c2cc(-c3ccc(OC(F)(F)F)cc3)ccc2OCCN1Cc1ncccn1` [Compound 1, 4-(pyrimidin-2-ylmethyl)-7-(4-(trifluoromethoxy)phenyl)-3,4-dihydrobenzo[f][1,4]oxazepin-5(2H)-one], in [1], the “Prolonged action potential duration (APD)” value is “shortens”, the QT interval result is given as “shortens” and the “Tpeak to Tend (TpTe)” value is “shortens”. Moreover, in data set [2] (setting [7]), the Absorption entry is listed as “fast absorption”, the Clearance result is recorded as “low clearance”, the Decline of concentration result was “biphasic decline” and the Half-life result is “long half-life”. The “PK profile in LQT3 patients compared with healthy volunteers” value in data set [2] (single oral dose, FIG. 4) is on record as “similar”. In addition, in data set [3], the “Late sodium channel inhibition” value was “potent late sodium channel inhibitors”. Further, the “Inhibition of the cardiac late sodium current (INa)” value in data set [4] was “potent and selective inhibitors”. At P-glycoproteins, the “Inhibition of P-glycoproteins” value is “does not inhibit”. In addition, in data set [5] (model of LQT3, FIG. 2), the Beat-to-beat variability result is “reduction”. For the same molecule, the “Action potential duration (APD)” value in data set [5] (model of LQT-3, FIG. 1) is listed as “shortening”. In the data set with patients with LQT3 (10 mg, three patients with inherited LQT3), the “Efficacy (QTc shortening or T-wave morphology)” value is “preliminary efficacy”. For the same molecule, in the data set on patients with LQT3 (LQT3 patients), the “Dependence of QTc shortening on mutations or concomitant use of b-blockers” value was “independent”, the Tolerability entry is given as “well tolerated” and the “Change in QTc from baseline” value was “changes in QTc from baseline”. In the data set with patients with LQT3 (setting [8]), the Tolerability result is recorded as “well tolerated; also recorded: well-tolerated” and the “Change in QTc from baseline” value is “Shortening of QTc was observed at all dose levels; also recorded: shortens QTc interval”. In addition, the “Left ventricular (LV) functions / cardiac function assessed by ECHO” value in the data set with patients with LQT3 (LQT3 patients, single and multiple dose cohorts, listed as Compound (I)) is “did not affect; also recorded: no effect”. The “Treatment of long QT syndrome in humans, specifically LQT3” value in the data set with patients with LQT3 (human, in vivo) is given as “effective”. Further, in the data set on patients with LQT3 (maintenance doses of 6 mg from Days 3-7), the “Persistence of QTc shortening” value was “sustained”. For the same molecule, the “Dose dependence of QTc shortening” value in the data set with patients with LQT3 (multiple dose cohort, 40 mg on Day 2 compared to 20 mg on Day 1) is “dose-dependent”. Moreover, the QTc shortening in the data set on patients with LQT3 (ten LQT-3 patients, single dose 10 mg, 20 mg, 30 mg or 60 mg) is reported as 20-100 milliseconds. For the same molecule, the “Prolonged monophasic action potential (MAP)” value with rabbit isolated heart (60 nM E-4031, 100 and 300 nM Compound 1, paced at 1 Hz) is on record as “shortens”. The “Torsades de pointes (TdP) ventricular tachyarrhythmia” value with rabbit isolated heart (induced by 60 nM E-4031, paced at 1 Hz) is “suppresses”. In data set [6], the “Inhibition of cytochrome P450 (CYP) enzymes” value was “does not inhibit”.

With `O=C1c2cc(-c3ccc(C(F)(F)F)cc3)ccc2OCCN1Cc1ncccn1` [Compound 2, 4-(pyrimidin-2-ylmethyl)-7-(4-(trifluoromethyl)phenyl)-3,4-dihydrobenzo[f][1,4]oxazepin-5(2H)-one], the “Late sodium channel inhibition” value in data set [3] is given as “potent late sodium channel inhibitors”. Besides, the “Inhibition of the cardiac late sodium current (INa)” value in data set [4] is “potent and selective inhibitors”.
